{"source": "the supplement of paper PMC10307832", "assay_in_all_cases": "relative viability (nuclei count vs DMSO), 5 days (fraction); higher = more cells survive", "key": {"ChaGo-K-1": {"test_system": "ChaGo-K-1", "outline": "(§1)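 After 5 days of treatment, lung cancer cells in 1536-well plates were fixed and stained in a single step (final 0.05% Triton X-100, 1% formaldehyde, 1 ug/ml Hoechst) and their nuclei counted on 4× images. Treatment had been applied by pin tool the day after seeding as one drug alone or as a fixed anchor-drug dose with five library-drug doses (not always all listed) in √10 steps. Relative viability is the nuclei count of treated wells divided by that of vehicle wells, and values are medians of duplicate plates.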"}, "LXF-289": {"test_system": "LXF-289", "outline": "as §1"}, "NCI-H3122": {"test_system": "NCI-H3122", "outline": "as §1"}, "RERF-LC-KJ": {"test_system": "RERF-LC-KJ", "outline": "as §1"}, "LCLC-103H": {"test_system": "LCLC-103H", "outline": "as §1"}, "LOU-NH91": {"test_system": "LOU-NH91", "outline": "as §1"}, "HCC-78": {"test_system": "HCC-78", "outline": "as §1"}, "NCI-H322M": {"test_system": "NCI-H322M", "outline": "as §1"}, "LU99A": {"test_system": "LU99A", "outline": "as §1"}, "NCI-H2085": {"test_system": "NCI-H2085", "outline": "as §1"}, "NCI-H2126": {"test_system": "NCI-H2126", "outline": "as §1"}, "NCI-H1666": {"test_system": "NCI-H1666", "outline": "as §1"}, "LK-2": {"test_system": "LK-2", "outline": "as §1"}, "NCI-H23": {"test_system": "NCI-H23", "outline": "as §1"}, "NCI-H1975": {"test_system": "NCI-H1975", "outline": "as §1"}, "HCC-827": {"test_system": "HCC-827", "outline": "as §1"}, "SW 900": {"test_system": "SW 900", "outline": "as §1"}, "EMC-BAC-2": {"test_system": "EMC-BAC-2", "outline": "as §1"}, "EPLC-272H": {"test_system": "EPLC-272H", "outline": "as §1"}, "NCI-H2405": {"test_system": "NCI-H2405", "outline": "as §1"}}, "data": [{"compound": "CC1(C)CCC(c2ccc(Cl)cc2)=C(CN2CCN(c3ccc(C(=O)NS(=O)(=O)c4ccc(N[C@H](CCN5CCOCC5)CSc5ccccc5)c(S(=O)(=O)C(F)(F)F)c4)cc3)CC2)C1", "note": "[Navitoclax] + NC(=O)Nc1cc(-c2cccc(F)c2)sc1C(=O)N[C@H]1CCCNC1 [AZD7762] (partner 0.2 µM)", "values": [{"measurement": "relative viability", "setting": "ChaGo-K-1; first compound 0.005 µM", "value": 0.879}, {"measurement": "relative viability", "setting": "ChaGo-K-1; first compound 0.01581 µM", "value": 0.875}, {"measurement": "relative viability", "setting": "ChaGo-K-1; first compound 0.05 µM", "value": 0.655}, {"measurement": "relative viability", "setting": "ChaGo-K-1; first compound 0.1581 µM", "value": 0.883}, {"measurement": "relative viability", "setting": "ChaGo-K-1; first compound 0.5 µM", "value": 0.803}, {"measurement": "relative viability", "setting": "LXF-289; first compound 0.005 µM", "value": 1.11}, {"measurement": "relative viability", "setting": "LXF-289; first compound 0.01581 µM", "value": 1.18}, {"measurement": "relative viability", "setting": "LXF-289; first compound 0.05 µM", "value": 0.924}, {"measurement": "relative viability", "setting": "LXF-289; first compound 0.1581 µM", "value": 1.06}, {"measurement": "relative viability", "setting": "LXF-289; first compound 0.5 µM", "value": 1.04}, {"measurement": "relative viability", "setting": "NCI-H3122; first compound 0.005 µM", "value": 0.982}, {"measurement": "relative viability", "setting": "NCI-H3122; first compound 0.01581 µM", "value": 0.971}, {"measurement": "relative viability", "setting": "NCI-H3122; first compound 0.05 µM", "value": 0.895}, {"measurement": "relative viability", "setting": "NCI-H3122; first compound 0.1581 µM", "value": 0.973}, {"measurement": "relative viability", "setting": "NCI-H3122; first compound 0.5 µM", "value": 0.985}, {"measurement": "relative viability", "setting": "RERF-LC-KJ; first compound 0.005 µM", "value": 1}, {"measurement": "relative viability", "setting": "RERF-LC-KJ; first compound 0.01581 µM", "value": 1.08}, {"measurement": "relative viability", "setting": "RERF-LC-KJ; first compound 0.05 µM", "value": 0.824}, {"measurement": "relative viability", "setting": "RERF-LC-KJ; first compound 0.1581 µM", "value": 1.12}, {"measurement": "relative viability", "setting": "RERF-LC-KJ; first compound 0.5 µM", "value": 0.921}, {"measurement": "relative viability", "setting": "LCLC-103H; first compound 0.005 µM", "value": 0.806}, {"measurement": "relative viability", "setting": "LCLC-103H; first compound 0.01581 µM", "value": 0.839}, {"measurement": "relative viability", "setting": "LCLC-103H; first compound 0.05 µM", "value": 0.736}, {"measurement": "relative viability", "setting": "LCLC-103H; first compound 0.1581 µM", "value": 0.826}, {"measurement": "relative viability", "setting": "LCLC-103H; first compound 0.5 µM", "value": 0.8}, {"measurement": "relative viability", "setting": "LOU-NH91; first compound 0.005 µM", "value": 0.746}, {"measurement": "relative viability", "setting": "LOU-NH91; first compound 0.01581 µM", "value": 0.792}, {"measurement": "relative viability", "setting": "LOU-NH91; first compound 0.05 µM", "value": 0.656}, {"measurement": "relative viability", "setting": "LOU-NH91; first compound 0.1581 µM", "value": 0.535}, {"measurement": "relative viability", "setting": "LOU-NH91; first compound 0.5 µM", "value": 0.306}, {"measurement": "relative viability", "setting": "HCC-78; first compound 0.005 µM", "value": 0.985}, {"measurement": "relative viability", "setting": "HCC-78; first compound 0.01581 µM", "value": 0.612}, {"measurement": "relative viability", "setting": "HCC-78; first compound 0.05 µM", "value": 0.508}, {"measurement": "relative viability", "setting": "HCC-78; first compound 0.1581 µM", "value": 0.607}, {"measurement": "relative viability", "setting": "HCC-78; first compound 0.5 µM", "value": 0.667}, {"measurement": "relative viability", "setting": "NCI-H322M; first compound 0.005 µM", "value": 0.648}, {"measurement": "relative viability", "setting": "NCI-H322M; first compound 0.01581 µM", "value": 0.626}, {"measurement": "relative viability", "setting": "NCI-H322M; first compound 0.05 µM", "value": 0.511}, {"measurement": "relative viability", "setting": "NCI-H322M; first compound 0.1581 µM", "value": 0.587}, {"measurement": "relative viability", "setting": "NCI-H322M; first compound 0.5 µM", "value": 0.679}, {"measurement": "relative viability", "setting": "LU99A; first compound 0.005 µM", "value": 0.414}, {"measurement": "relative viability", "setting": "LU99A; first compound 0.01581 µM", "value": 0.466}, {"measurement": "relative viability", "setting": "LU99A; first compound 0.1581 µM", "value": 0.43}, {"measurement": "relative viability", "setting": "LU99A; first compound 0.5 µM", "value": 0.439}, {"measurement": "relative viability", "setting": "NCI-H2085; first compound 0.005 µM", "value": 0.941}, {"measurement": "relative viability", "setting": "NCI-H2085; first compound 0.01581 µM", "value": 1.01}, {"measurement": "relative viability", "setting": "NCI-H2085; first compound 0.05 µM", "value": 0.885}, {"measurement": "relative viability", "setting": "NCI-H2085; first compound 0.1581 µM", "value": 1.07}, {"measurement": "relative viability", "setting": "NCI-H2085; first compound 0.5 µM", "value": 0.942}, {"measurement": "relative viability", "setting": "NCI-H2126; first compound 0.005 µM", "value": 1.06}, {"measurement": "relative viability", "setting": "NCI-H2126; first compound 0.01581 µM", "value": 0.931}, {"measurement": "relative viability", "setting": "NCI-H2126; first compound 0.05 µM", "value": 1.05}, {"measurement": "relative viability", "setting": "NCI-H2126; first compound 0.1581 µM", "value": 0.915}, {"measurement": "relative viability", "setting": "NCI-H2126; first compound 0.5 µM", "value": 0.947}, {"measurement": "relative viability", "setting": "NCI-H1666; first compound 0.005 µM", "value": 0.934}, {"measurement": "relative viability", "setting": "NCI-H1666; first compound 0.01581 µM", "value": 0.883}, {"measurement": "relative viability", "setting": "NCI-H1666; first compound 0.05 µM", "value": 0.738}, {"measurement": "relative viability", "setting": "NCI-H1666; first compound 0.1581 µM", "value": 0.861}, {"measurement": "relative viability", "setting": "NCI-H1666; first compound 0.5 µM", "value": 0.882}, {"measurement": "relative viability", "setting": "LK-2; first compound 0.005 µM", "value": 0.593}, {"measurement": "relative viability", "setting": "LK-2; first compound 0.01581 µM", "value": 0.567}, {"measurement": "relative viability", "setting": "LK-2; first compound 0.05 µM", "value": 0.295}, {"measurement": "relative viability", "setting": "LK-2; first compound 0.1581 µM", "value": 0.358}, {"measurement": "relative viability", "setting": "LK-2; first compound 0.5 µM", "value": 0.351}, {"measurement": "relative viability", "setting": "NCI-H23; first compound 0.005 µM", "value": 0.28}, {"measurement": "relative viability", "setting": "NCI-H23; first compound 0.01581 µM", "value": 0.33}, {"measurement": "relative viability", "setting": "NCI-H23; first compound 0.05 µM", "value": 0.291}, {"measurement": "relative viability", "setting": "NCI-H23; first compound 0.1581 µM", "value": 0.195}, {"measurement": "relative viability", "setting": "NCI-H23; first compound 0.5 µM", "value": 0.23}, {"measurement": "relative viability", "setting": "NCI-H1975; first compound 0.005 µM", "value": 0.855}, {"measurement": "relative viability", "setting": "NCI-H1975; first compound 0.01581 µM", "value": 0.799}, {"measurement": "relative viability", "setting": "NCI-H1975; first compound 0.05 µM", "value": 0.713}, {"measurement": "relative viability", "setting": "NCI-H1975; first compound 0.1581 µM", "value": 0.752}, {"measurement": "relative viability", "setting": "NCI-H1975; first compound 0.5 µM", "value": 0.646}, {"measurement": "relative viability", "setting": "HCC-827; first compound 0.005 µM", "value": 0.274}, {"measurement": "relative viability", "setting": "HCC-827; first compound 0.01581 µM", "value": 0.188}, {"measurement": "relative viability", "setting": "HCC-827; first compound 0.05 µM", "value": 0.186}, {"measurement": "relative viability", "setting": "HCC-827; first compound 0.1581 µM", "value": 0.199}, {"measurement": "relative viability", "setting": "HCC-827; first compound 0.5 µM", "value": 0.235}, {"measurement": "relative viability", "setting": "SW 900; first compound 0.005 µM", "value": 0.538}, {"measurement": "relative viability", "setting": "SW 900; first compound 0.01581 µM", "value": 0.651}, {"measurement": "relative viability", "setting": "SW 900; first compound 0.1581 µM", "value": 0.573}, {"measurement": "relative viability", "setting": "SW 900; first compound 0.5 µM", "value": 0.476}, {"measurement": "relative viability", "setting": "EMC-BAC-2; first compound 0.005 µM", "value": 1.03}, {"measurement": "relative viability", "setting": "EMC-BAC-2; first compound 0.01581 µM", "value": 1.26}, {"measurement": "relative viability", "setting": "EMC-BAC-2; first compound 0.05 µM", "value": 1.07}, {"measurement": "relative viability", "setting": "EMC-BAC-2; first compound 0.1581 µM", "value": 1.09}, {"measurement": "relative viability", "setting": "EMC-BAC-2; first compound 0.5 µM", "value": 1.13}, {"measurement": "relative viability", "setting": "EPLC-272H; first compound 0.005 µM", "value": 0.26}, {"measurement": "relative viability", "setting": "EPLC-272H; first compound 0.05 µM", "value": 0.3}, {"measurement": "relative viability", "setting": "EPLC-272H; first compound 0.1581 µM", "value": 0.143}, {"measurement": "relative viability", "setting": "EPLC-272H; first compound 0.5 µM", "value": 0.257}, {"measurement": "relative viability", "setting": "NCI-H2405; first compound 0.005 µM", "value": 0.703}, {"measurement": "relative viability", "setting": "NCI-H2405; first compound 0.01581 µM", "value": 0.857}, {"measurement": "relative viability", "setting": "NCI-H2405; first compound 0.05 µM", "value": 0.622}, {"measurement": "relative viability", "setting": "NCI-H2405; first compound 0.1581 µM", "value": 0.698}, {"measurement": "relative viability", "setting": "NCI-H2405; first compound 0.5 µM", "value": 0.653}]}]}
